Key:
L98A CaFADS = biological target: T1, L98A CaFADS (Corynebacterium ammoniagenes, UniProt Q59263, L98A); assay: biochemical; format: biochemical
T1 construct: made in house; host or cells: E. coli BL21(DE3)
Experimental: (§1) Reactions were initiated by the addition of ~20 nM of enzyme. After 1 min incubation at 25 °C, the reactions were stopped by boiling the mixtures for 5 min. The composition of flavins in the supernatant was determined using an Alliance HPLC system (Waters, Milford, MA, USA) equipped with a 2707 autosampler and a HSST3 column (4.6 × 150 mm, 3.5 µm, Waters) preceded by a pre-column (4.6 × 20 mm, 3.5 µm, Waters). The chromatography was developed at 1 mL/min with a 6 min isocratic program of methanol 40% (v/v) in 5 mM ammonium acetate (pH 6.0). Detection of flavins was carried out using a 2475 Multi λ fluorescence detector (Waters), excitation wavelength of 470 nm and emission wavelength of 530 nm. […] The flavinic products of the reaction were identified by their retention times and quantified through their corresponding standard curves obtained under the same conditions. Controls containing free flavins in the absence of the enzyme were treated similarly to reaction samples to discard flavin degradation during RFK activity determination. […] In case of inhibition, the experimental data were fitted to a model describing the substrate inhibition of a bi-substrate mechanism. In these situations, errors in apparent Km and kcat (^appKm and ^appkcat) increased with the inhibition constant (Ki) value getting closer to Km^S. Reaction mixtures were evaluated in triplicates, and final results are expressed as the standard error of the fitted value (value ± SE).

L98K CaFADS = biological target: T2, L98K CaFADS (Corynebacterium ammoniagenes, UniProt Q59263, L98K); assay: biochemical; format: biochemical
T2 construct: made in house; host or cells: E. coli BL21(DE3)
Experimental: as §1

L98W CaFADS = biological target: T3, L98W CaFADS (Corynebacterium ammoniagenes, UniProt Q59263, L98W); assay: biochemical; format: biochemical
T3 construct: made in house; host or cells: E. coli BL21(DE3)
Experimental: as §1

P56A/P58A CaFADS = biological target: T4, P56A/P58A CaFADS (Corynebacterium ammoniagenes, UniProt Q59263, P56A/P58A); assay: biochemical; format: biochemical
T4 construct: made in house; host or cells: E. coli BL21(DE3)
Experimental: as §1

P56W CaFADS = biological target: T5, P56W CaFADS (Corynebacterium ammoniagenes, UniProt Q59263, P56W); assay: biochemical; format: biochemical
T5 construct: made in house; host or cells: E. coli BL21(DE3)
Experimental: as §1

P58W CaFADS = biological target: T6, P58W CaFADS (Corynebacterium ammoniagenes, UniProt Q59263, P58W); assay: biochemical; format: biochemical
T6 construct: made in house; host or cells: E. coli BL21(DE3)
Experimental: as §1

CaFADS variants = assay: Qualitative detection of RFK, FMNAT and FADpp activities by TLC; format: biochemical, Corynebacterium ammoniagenes; conditions: all variants, 200 nM enzyme, 50 μM flavin, 0.2 mM ATP, 10 mM MgCl2, pH 7.0, 30 min and 2 h
Experimental: RFK and FMNAT activities were qualitatively assayed by the incubation of enzymes with substrates and separation of flavins (substrates and products) from reaction mixtures using TLC on Silica Gel SIL-G-25 plates (20 × 20 cm, thickness 0.25 mm) as previously described. […] Reactions were stopped by boiling the preparations for 5 min. Flavin spots were visualized under UV light.

WT CaFADS = biological target: T7, WT CaFADS (Corynebacterium ammoniagenes, UniProt Q59263); conditions: saturating ATP, 20 mM PIPES, 0.8 mM MgCl2, pH 7.0, 25 °C, cited from earlier work
T7 construct: made in house; host or cells: Escherichia coli

`Cc1cc2nc3c(=O)[nH]c(=O)nc-3n(C[C@H](O)[C@H](O)[C@H](O)CO)c2cc1C` [RF, Riboflavin] showed a Ki (L98A CaFADS) of 32 ± 15 µM, a kcat (L98A CaFADS; L98A CaFADS, RF varied, saturating ATP, apparent value, 20 mM PIPES, 0.8 mM MgCl2, pH 7.0, 25 °C) of 2.3 ± 0.433 s⁻¹ and a Ki (L98K CaFADS) of 41 ± 13 µM. It also gave a kcat (L98K CaFADS; L98K CaFADS, RF varied, saturating ATP, apparent value, 20 mM PIPES, 0.8 mM MgCl2, pH 7.0, 25 °C) of 4.13 ± 0.567 s⁻¹, a Ki (L98W CaFADS) of 46 ± 20 µM and a kcat (L98W CaFADS; L98W CaFADS, RF varied, saturating ATP, apparent value, 20 mM PIPES, 0.8 mM MgCl2, pH 7.0, 25 °C) of 2.33 ± 0.35 s⁻¹. For the same compound, the Ki (P56A/P58A CaFADS) was 54 ± 29 µM, the kcat (P56A/P58A CaFADS; P56A/P58A CaFADS, RF varied, saturating ATP, apparent value, 20 mM PIPES, 0.8 mM MgCl2, pH 7.0, 25 °C) was 1.3 ± 0.2 s⁻¹ and the Ki (P56W CaFADS) was 6.5 ± 1.9 µM. The “decrease of Km^RF relative to WT” value (P56W CaFADS; P56W CaFADS vs WT) was “up to 30 fold”, the kcat (P56W CaFADS; P56W CaFADS, RF varied, saturating ATP, apparent value, 20 mM PIPES, 0.8 mM MgCl2, pH 7.0, 25 °C) was 0.75 ± 0.083 s⁻¹ and the Ki (P58W CaFADS) was 39 ± 21 µM. The kcat (P58W CaFADS; P58W CaFADS, RF varied, saturating ATP, apparent value, 20 mM PIPES, 0.8 mM MgCl2, pH 7.0, 25 °C) was 1.63 ± 0.317 s⁻¹, the “RFK activity (transformation of RF), qualitative” value (CaFADS variants) was “All variants kept the RFK activity” and the Ki (WT CaFADS; RF substrate inhibition) was 4.9 ± 3.9 µM. For the same compound, the Km (WT CaFADS; RF varied, apparent value, read-out: Km^RF) was 12 ± 3 µM and the kcat (WT CaFADS; RF varied, apparent value) was 6.8 ± 3.33 s⁻¹.
